{"source": "patent US20220273590A1", "about": "“COMPOUNDS FOR PREVENTION AND TREATMENT OF POST-OPERATIVE COGNITIVE DYSFUNCTION” (ABREXA PHARMACEUTICALS, INC., priority 2019, published 2022)", "origin": "cited, not measured here", "conditions": "cited from earlier work", "data": [{"smiles": "[Mg+2]", "note": "[Magnesium]", "values": [{"measurement": "reduction of POCD", "setting": "administered intravenously during cardiac surgery, clinical trial NCT00041392", "result": "failed to reduce POCD"}]}, {"smiles": "CCN(C)C(=O)Oc1cccc([C@H](C)N(C)C)c1", "note": "[Rivastigmine]", "values": [{"measurement": "efficacy for the treatment of POCD", "setting": "clinical investigation NCT00835159, at termination", "result": "no efficacy was observed"}, {"measurement": "safety in the treatment of POCD", "setting": "seriously ill patients after surgery, clinical investigation NCT00835159 terminated", "result": "too dangerous"}]}, {"smiles": "Cc1cccc([C@H](C)c2cnc[nH]2)c1C", "note": "[Dexmedetomidine]", "values": [{"measurement": "efficacy for POCD", "setting": "Skvarc et al. (2018)", "result": "failed to show efficacy"}]}]}
